This note sets out measurements from patent US20130116263A1, “PAK INHIBITORS FOR THE TREATMENT OF CELL PROLIFERATIVE DISORDERS” (AFRAXIS, INC., priority 2011, published 2013).

The test system of assay [1] is p-PAK1(S144). The assay is described as follows: In vitro cellular HTRF assay for p-PAK1(S144). Conditions: cell line RT4-D6P2T, read-out: pPAK1(S144). In kind it is cell-based. The text has this:
(§1) Some of the compounds for treatment of cancer are subject to in vitro cellular HTRF assay for p-PAK1(S144) and p-MEK1(S298). The cell line is RT4-D6P2T.
For orientation: In TR-FRET formats the signal depends on donor and acceptor labels being close together.

Assay [2] has as its system p-MEK1(S298). The assay is described as follows: In vitro cellular HTRF assay for p-MEK1(S298). As to conditions: cell line RT4-D6P2T, read-out: pMEK1(S298). It is filed as cell-based.
Text: as §1

Assay [3] relates to OVCAR-4. The assay is described as follows: Growth inhibition in cancer cell lines (CellTiter-Glo), OVCAR-4. It is filed as cell-based. As to conditions: OVCAR-4, 72 hours exposure. The text has this:
(§2) Methodology: 60 cell lines (CCRF-CEM, HL-60(TB), K-562, MOLT-4, RPMI-8226, SR, A549, EKVX, HOP-62, HOP-92, NCI-H226, NCI-H23, NCI-H322M, NCI-H460, NCI-H522, COLO 205, HCC-2998, HCT-116, HCT-15, HT29, KM12, SW-620, SF-268, SF-295, SF-539, SNB-19, SNB-75, U251, LOX IMV1, MALME-3M, M14, SK-MEL-2, SK− MEL-28, SK-MEL-5, UACC-257, UACC-62, IGR-OV 1, OVCAR-3, OVCAR-4, OVCAR-5, OVCAR-8, SK-OV-3, 786-0, A498, ACHN, CAKI-1, RXF 393, SN12C, TK-10, UO-31, PC-3, DU-145, MCF7, NCI/ADR-RES, MDA-MB-231, HS 578T, MDA-MB-435, MDA-MB-468, BT-549, and T-47D) are grown in RPMI-1640 medium with 10% FBS. Stock solutions of a test compound are prepared in DMSO. Concentrations of from about 0.001 μM to about 20 μM of each compound in RPM-1640 media are prepared. The test compound is added to wells containing 50 μL of cells and medium. A CellTiter-Glo (CTG) assay is carried out on the 0 hr plate to obtain a 0 hr count. Cells are exposed to the test compound for 72 hours. Following the exposure period, the plates are assayed using CTG. Luminescence is recorded on Synergy.
(§3) As a non-limiting example, Compound 30 as described herein was tested for growth inhibition against various cancer cell lines.
For orientation: Cellular ATP, detected with luciferase, serves as a proxy for viable cell number.

For assay [4], the system named is EBC-1. The assay is described as follows: Growth inhibition in cancer cell lines (CellTiter-Glo), EBC-1. It is filed as cell-based. Conditions: EBC-1, 72 hours exposure.
Assay [5] deals with SKOV-3. The assay is described as follows: Growth inhibition in cancer cell lines (CellTiter-Glo), SKOV-3. It is filed as cell-based. Conditions: Homo sapiens, SK-OV-3; SKOV-3, 72 hours exposure.
Text: as §2, §3

The test system of assay [6] is SK-MES-1. The assay can be described thus: Growth inhibition in cancer cell lines (CellTiter-Glo), SK-MES-1. It is filed as cell-based. Conditions: SK-MES-1, 72 hours exposure.
Assay [7] deals with NCI-H520. The assay is described as follows: Growth inhibition in cancer cell lines (CellTiter-Glo), NCI-H520. It is filed as cell-based. Conditions: NCI-H520, 72 hours exposure.
Text: as §2, §3

Assay [8] relates to OVCAR-3. The assay can be described thus: Growth inhibition in cancer cell lines (CellTiter-Glo), OVCAR-3. It is filed as cell-based. As to conditions: OVCAR-3, 72 hours exposure.
Text: as §2, §3

In assay [9] the test system is IGROV-1. The assay can be described thus: Growth inhibition in cancer cell lines (CellTiter-Glo), IGROV-1. In kind it is cell-based. Conditions: IGROV-1, 72 hours exposure.
Text: as §2, §3

Assay [10] addresses PAK4 (Homo sapiens, UniProt O96013). The assay is described as follows: Additional in vitro PAK-4 inhibition assay at ATP 10 uM and 1 mM. It is filed as biochemical. As to conditions: 10 μM ATP; read-out: PAK4 IC50 (10 μM ATP). How it is done:
(§4) Similar in vitro PAK1 and PAK-4 inhibition assays are conducted in compounds for the treatment of cancer, but under ATP concentrations of 10 uM and 1 mM.

The target in assay [11] is PAK1 (Homo sapiens, UniProt Q13153). The assay is described as follows: Additional in vitro PAK1 inhibition assay at ATP 10 uM and 1 mM. It is filed as biochemical. How it is done: as §4
Where [12] appears, read: 10 μM ATP, read-out: PAK1 IC50 (10 μM ATP).
The mark [13] stands for this setting: 1 mM ATP, read-out: PAK1 IC50 (1 mM ATP).

Structures are written as SMILES. Like-named read-outs stand apart in the source and are kept apart here.

Sequence of PAK4 (O96013 whole entry): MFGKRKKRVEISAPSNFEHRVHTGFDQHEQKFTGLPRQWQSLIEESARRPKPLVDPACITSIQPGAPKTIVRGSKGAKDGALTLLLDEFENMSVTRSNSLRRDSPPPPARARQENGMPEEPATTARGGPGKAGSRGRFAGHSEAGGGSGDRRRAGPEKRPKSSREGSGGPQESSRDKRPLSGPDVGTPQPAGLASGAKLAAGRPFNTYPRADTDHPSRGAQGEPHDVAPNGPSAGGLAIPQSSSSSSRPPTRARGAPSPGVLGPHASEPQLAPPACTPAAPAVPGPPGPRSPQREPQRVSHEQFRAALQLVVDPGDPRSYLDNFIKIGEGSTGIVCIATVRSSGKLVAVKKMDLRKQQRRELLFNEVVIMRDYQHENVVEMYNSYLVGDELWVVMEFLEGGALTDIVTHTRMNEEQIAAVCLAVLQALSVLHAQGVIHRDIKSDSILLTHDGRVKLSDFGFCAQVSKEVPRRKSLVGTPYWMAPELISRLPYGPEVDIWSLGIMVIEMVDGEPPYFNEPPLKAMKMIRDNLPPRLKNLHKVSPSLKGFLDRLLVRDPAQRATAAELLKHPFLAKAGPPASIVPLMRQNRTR
Sequence of PAK1 (Q13153 whole entry): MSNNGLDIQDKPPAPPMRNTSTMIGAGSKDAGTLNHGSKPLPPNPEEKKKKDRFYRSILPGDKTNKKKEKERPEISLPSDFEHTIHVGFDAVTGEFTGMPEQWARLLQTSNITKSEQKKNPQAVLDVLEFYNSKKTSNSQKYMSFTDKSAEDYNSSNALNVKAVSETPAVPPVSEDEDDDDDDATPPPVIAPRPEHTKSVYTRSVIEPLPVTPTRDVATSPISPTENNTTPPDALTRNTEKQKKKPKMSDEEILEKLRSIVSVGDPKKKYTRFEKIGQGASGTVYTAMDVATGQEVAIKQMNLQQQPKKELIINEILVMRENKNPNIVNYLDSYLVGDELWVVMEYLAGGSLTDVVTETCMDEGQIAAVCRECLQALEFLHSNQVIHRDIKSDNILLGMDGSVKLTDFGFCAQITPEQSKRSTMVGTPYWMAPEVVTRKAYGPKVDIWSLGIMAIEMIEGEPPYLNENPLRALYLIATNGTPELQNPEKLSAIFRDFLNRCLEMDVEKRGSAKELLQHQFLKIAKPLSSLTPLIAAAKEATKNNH

On to `CCn1c(=O)c(-c2ccc(-c3cncc(C)n3)cc2Cl)cc2cnc(NCC3CCC(N)CC3)nc21` (centres unmarked) [drawing 383], for which the IC50 fell in the range of 50 to 500 nM in assay [1] and 500 to 5000 nM in [2].
For `Cc1nc(-c2ccc(-c3cc4cnc(NC5CCOCC5)nc4n(Cc4ccc(CCN)cc4)c3=O)c(Cl)c2)no1` [drawing 394], the IC50 in [1] fell in the range of 50 to 500 nM; in [2], 500 to 5000 nM.
For the molecule `Cc1nc(-c2ccc(-c3cc4cnc(NC5CCOCC5)nc4n(CC4CCNCC4)c3=O)c(Cl)c2)no1` [drawing 396], the IC50 fell in the range of 50 to 500 nM in [1] and 500 to 5000 nM in assay [2].
On to `CCn1c(=O)c(-c2ccc(-c3cncc(C)n3)cc2Cl)cc2cnc(NC3CCOCC3)nc21` [drawing 391], for which the IC50 in assay [1] lay within 50 to 500 nM; in assay [2], 500 to 5000 nM.
For `Cc1nc(-c2ccc(-c3cc4cnc(NC5CCNC(=O)C5)nc4n(Cc4c(F)cccc4C(F)(F)F)c3=O)c(Cl)c2)no1` (centres unmarked) [drawing 382] the same measures were 500 to 5000 nM and more than 5000 nM.
On to `Cc1nc(-c2ccc(-c3cc4cnc(NC5CCOCC5)nc4n(CC(=O)NCc4ccncc4)c3=O)c(Cl)c2)no1` [drawing 388], for which the IC50 in assay [1] is 500 to 5000 nM; in assay [2], more than 5000 nM.
As for `CCn1c(=O)c(-c2ccc(-c3nccnc3C)cc2Cl)cc2cnc(NC3CCOC(C)(C)C3)nc21` (centres unmarked) [drawing 385], the IC50 in assay [1] and in assay [2] was 500 to 5000 nM in each case.
Consider `Cc1nc(-c2ccc(-c3cc4cnc(NC5CCOCC5)nc4n(Cc4cccc(CCN)c4)c3=O)c(Cl)c2)no1` [drawing 395], for which the IC50 in assay [1] and in assay [2] was 50 to 500 nM each time.
Consider `CCn1c(=O)c(-c2ccc(-c3cccnc3F)cc2Cl)cc2cnc(NC3CCOCC3)nc21` [drawing 392], for which the IC50 in [1] and in [2] was 500 to 5000 nM each time.
As for `Cc1nc(-c2ccc(-c3cc4cnc(NC5CCOCC5)nc4n(Cc4cccc(CN)c4)c3=O)c(Cl)c2)no1` [drawing 379], the IC50 in assay [1] is 50 to 500 nM; in assay [2], 500 to 5000 nM.
As for `CCn1c(=O)c(-c2ccc(-c3nccnc3C)cc2Cl)cc2cnc(NC3CCOC(C)(C)C3)nc21` (centres unmarked) [Compound 30], the GI50 (commonly the concentration at which growth is held to half of that of the control) amounted to 2600 nM in [3] (Homo sapiens); 3500 nM in assay [4] (Homo sapiens); 3800 nM in assay [5]; 3800 nM in assay [6] (Homo sapiens); 6000 nM in [7] (Homo sapiens); 3100 nM in assay [8] (Homo sapiens). Moreover, the GI50 in assay [9] (Homo sapiens) is 330 nM. The “Maximum Inhibition” value in assay [3] was −50%; in assay [4], −13%; in [6], −14%; in assay [7], −17%; in [8], −20%; in assay [9], −50%.
Consider `Cc1nc(-c2ccc(-c3cc4cnc(NC5CCOCC5)nc4n(CC(=O)N4CCC(CN)CC4)c3=O)c(Cl)c2)no1` [drawing 381], for which, in assay [2], the IC50 was more than 5000 nM.
Turning to `CCn1c(=O)c(-c2ccc(-c3cncc(C)n3)cc2Cl)cc2cnc(N[C@H]3CCOC3)nc21` [drawing 389], the results for the IC50 in assay [1] and in assay [2] were 500 to 5000 nM and more than 5000 nM, respectively.
`Cc1nc(-c2ccc(-c3cc4cnc(NC5CCOCC5)nc4n(CCC4CCNCC4)c3=O)c(Cl)c2)no1` [drawing 378]: the IC50 in [2] is 500 to 5000 nM.
Turning to `CCn1c(=O)c(-c2ccc(-c3cncc(C)n3)cc2Cl)cc2cnc(NCCC3CCN(C)CC3)nc21` [drawing 390], the IC50 in [1] and in assay [2] was 50 to 500 nM throughout.
On to `Cc1nc(-c2ccc(-c3cc4cnc(NC5CCOCC5)nc4n(CC(=O)NC4CCNC4)c3=O)c(Cl)c2)no1` (centres unmarked) [drawing 387], for which the IC50 in assay [2] is more than 5000 nM.
Take `CN(C)C[C@@H](NC(=O)N1Cc2c(Nc3ncnc4sccc34)n[nH]c2C1(C)C)c1ccccc1`: the IC50 lay within 50 to 500 nM in [1] and 500 to 5000 nM in [2].
`Cc1nc(-c2ccc(-c3cc4cnc(NC5CCOCC5)nc4n(Cc4cccc(OCCN)c4)c3=O)c(Cl)c2)no1` [drawing 380]: the IC50 in [1] and in assay [2] was 500 to 5000 nM each time.
For `CCn1c(=O)c(-c2ccc(-c3noc(C)n3)cc2Cl)cc2cnc(N[C@@H]3CCO[C@@H]3N3CCN(C)CC3)nc21`, the IC50 in assay [10] is not below 5000 nM; in [11] (setting [12]), 50 to 500 nM; in assay [11] (setting [13]) it was not below 5000 nM.
For the molecule `Cc1cncc(-c2ccc(-c3cc4cnc(N[C@@H]5CCOC5)nc4n(CCCN)c3=O)c(Cl)c2)n1` [drawing 384], the IC50 in assay [1] and in [2] was 500 to 5000 nM in each case.
For the molecule `Cc1nc(-c2ccc(-c3cc4cnc(NC5CCOCC5)nc4n(Cc4ccc(CN)cc4)c3=O)c(Cl)c2)no1` [drawing 397], the IC50 in [1] was in the range of 50 to 500 nM; in [2] it was 500 to 5000 nM.
With `Cc1nc(-c2ccc(-c3cc4cnc(NC5CCOCC5)nc4n(CCC4CCNCC4)c3=O)c(Cl)c2)no1` [drawing 343], the IC50 was not below 5000 nM in assay [10], less than 50 nM in assay [11] (setting [12]) and 500 to 5000 nM in assay [11] (setting [13]).
Take `CCn1c(=O)c(-c2ccc(-c3cccc(C)n3)cc2Cl)cc2cnc(N[C@H]3CC[C@H](CN(C)C)CC3)nc21`: the IC50 in [1] and in assay [2] was 500 to 5000 nM each time.
As for `CCn1c(=O)c(-c2ccc(-c3noc(C)n3)cc2Cl)cc2cnc(NCC3CCOCC3)nc21`, the IC50 was not below 5000 nM in assay [10], 500 to 5000 nM in assay [11] (setting [12]) and not below 5000 nM in assay [11] (setting [13]).
